Earlier results in PubChem BioAssay AID1259409 (Chemical Carcinogenesis Research Information System (CCRIS), 2018).

Test system: rodent chemically induced tumor inhibition, incidence and multiplicity
Assay: CCRIS tumor inhibitor studies

CC(=O)O
tumour outcome (control, treated, inhibition, significance) (Dose [Inhibitor]: 0, 60 UMOL (MG) INJECTED WITH CARCINOGEN INTO THIGH OF BOTH HIND LIMBS (STUDY DURATION: 79 WK), Route [Inhibitor]: INTRAMUSCULAR, Species: RAT, Strain/Sex: F344/MALE, Target Tissue: Type of Lesion: INJECTION SITE: SARCOMA, Dose [Carcinogen]: 2.5 MG PER SITE INJECTED INTO THIGH OF BOTH HIND LIMBS, Promoter: NONE USED): 100%, 95%, 5%, not significant

Clc1cccc(-c2ccc(Cl)c(Cl)c2Cl)c1Cl
tumour outcome (control, treated, inhibition, significance) (Carcinogen: DIETHYLNITROSAMINE, 55-18-5, Dose [Inhibitor]: 100 PPM IN DIET FOR 6 WK PRIOR TO CARCINOGEN DOSE (STUDY DURATION: 48 WK), Route [Inhibitor]: ORAL, Species: FISH, Strain/Sex: MT. SHASTA RAINBOW/MALE, FEMALE, Target Tissue: Type of Lesion: LIVER: HEPATOCELLULAR CARCINOMA AND HEPATOCHOLANGIOCELLULAR CARCINOMA, Dose [Carcinogen]: 250 PPM IN AQUEOUS SOLUTION FOR 24 HR, Promoter: NONE USED): 105/131 (80%), 112/140 (80%), 0%, not significant

CC(C)(O)/C=C/C(=O)[C@](C)(O)[C@H]1[C@H](O)C[C@@]2(C)[C@@H]3CC=C4[C@@H](C[C@H](O)[C@@H](O)C4(C)C)[C@]3(C)C(=O)C[C@]12C
tumour outcome (control, treated, inhibition, significance) (Carcinogen: 7,12-DIMETHYLBENZ[A]ANTHRACENE, 57-97-6, Dose [Inhibitor]: 0, 85 NMOL IN 0.1 ML ACETONE APPLIED 1 HR PRIOR TO EACH PROMOTER DOSE 2/WK FOR 20 WK (STUDY DURATION: 21 WK), Route [Inhibitor]: DERMAL, Species: MOUSE, Strain/Sex: ICR/FEMALE, Target Tissue: Type of Lesion: SKIN: PAPILLOMA, Dose [Carcinogen]: 100 UG IN 0.1 ML ACETONE ONCE, Promoter: 12-O-TETRADECANOYLPHORBOL-13-ACETATE, 16561-29-8): 100%, 100%, 0%, not significant

COc1ccc(O)cc1
tumour outcome (control, treated, inhibition, significance) (Carcinogen: BENZO[A]PYENE, 50-32-8, Dose [Inhibitor]: 0.028 MMOL/G DIET DAILY FOR 6 WK STARTING 14 D PRIOR TO THE FIRST UNTIL 1 D AFTER LAST CARCINOGEN DOSE FOLLOWED BY AN OB, Route [Inhibitor]: ORAL, Species: MOUSE, Strain/Sex: STRAIN-A/FEMALE, Target Tissue: Type of Lesion: LUNG: ADENOMA, Dose [Carcinogen]: 3 MG IN 0.2 ML COTTONSEED OIL GIVEN 3X AT 2 WK INTERVALS, Promoter: NONE USED): 100%, 100%, 0%, not significant
tumour outcome (control, treated, inhibition, significance) (Carcinogen: BENZO[A]PYENE, 50-32-8, Dose [Inhibitor]: 0.028 MMOL/G DIET DAILY STARTING 2 WK AFTER FINAL CARCINOGEN DOSE THROUGH THE END OF THE STUDY (STUDY DURATION: 14 WK), Route [Inhibitor]: ORAL, Species: MOUSE, Strain/Sex: ICR/FEMALE, Target Tissue: Type of Lesion: FORESTOMACH: PAPILLOMA, Dose [Carcinogen]: 1.5 MG IN 0.2 ML CORN OIL GIVEN 2/WK FOR 4 WK, Promoter: NONE USED): 97%, 100%, -3%, not significant
tumour outcome (control, treated, inhibition, significance) (Carcinogen: BENZO[A]PYRENE, 50-32-8, Dose [Inhibitor]: 0, 3.3 UMOL/G DIET BEGINNING 1 WK PRIOR TO CARCINOGEN TREATMENT AND CONTINUING FOR 1 WK POST CARCINOGEN TREATMENT FOLLOW, Route [Inhibitor]: ORAL, Species: MOUSE, Strain/Sex: CD-1/FEMALE, Target Tissue: Type of Lesion: FORESTOMACH: PAPILLOMA, Dose [Carcinogen]: 1 MG IN 0.2 ML CORN OIL 2/WK FOR 4 WK, Promoter: NONE USED): 85%, 46%, 46%, p<0.01
tumour outcome (control, treated, inhibition, significance) (Carcinogen: BENZO[A]PYRENE, 50-32-8, Dose [Inhibitor]: 0.03 MMOL/G OF DIET DAILY STARTING 7 D BEFORE AND CONTINUING THROUGH 3 D AFTER CARCINOGEN TREATMENT FOLLOWED BY OBSERVAT, Route [Inhibitor]: ORAL, Species: MOUSE, Strain/Sex: ICR/FEMALE, Target Tissue: Type of Lesion: FORESTOMACH: NEOPLASM, Dose [Carcinogen]: 1 MG IN 0.2 ML CORN OIL 2/WK FOR 4 WK, Promoter: NONE USED): 100%, 65%, 35%, p 0.053
tumour outcome (control, treated, inhibition, significance) (Carcinogen: BETA-PROPIOLACTONE, 57-57-8, Dose [Inhibitor]: 4.2 MG/G DIET DAILY FOR 14 WK STARTING 12 D PRIOR TO FIRST CARCINOGEN DOSE UNTIL 1 D AFTER LAST CARCINOGEN DOSE FOLLOWED, Route [Inhibitor]: ORAL, Species: MOUSE, Strain/Sex: ICR/FEMALE, Target Tissue: Type of Lesion: FORESTOMACH: PAPILLOMA OR CARCINOMA, Dose [Carcinogen]: 2 MG IN 0.1 ML PROPYLENE GLYCOL 2/WK FOR 12 WK, Promoter: NONE USED): 100%, 41%, 59%, p<0.001
tumour outcome (control, treated, inhibition, significance) (Carcinogen: BETA-PROPIOLACTONE, 57-57-8, Dose [Inhibitor]: 5.2 MG IN 0.1 ML PROPYLENE GLYCOL 2/WK FOR 12 WK GIVEN 1 HR PRIOR TO EACH CARCINOGEN ADMINISTRATION FOLLOWED BY AN OBSER, Route [Inhibitor]: GAVAGE, Species: MOUSE, Strain/Sex: ICR/FEMALE, Target Tissue: Type of Lesion: FORESTOMACH: PAPILLOMA OR CARCINOMA, Dose [Carcinogen]: 2 MG IN 0.1 ML PROPYLENE GLYCOL 2/WK FOR 12 WK, Promoter: NONE USED): 100%, 61%, 39%, p<0.001
tumour outcome (control, treated, inhibition, significance) (Carcinogen: BETA-PROPIOLACTONE, 57-57-8, Dose [Inhibitor]: 5.2 MG IN 0.1 ML PROPYLENE GLYCOL 2/WK FOR 12 WK GIVEN 4 HR PRIOR TO EACH CARCINOGEN ADMINISTRATION FOLLOWED BY AN OBSER, Route [Inhibitor]: GAVAGE, Species: MOUSE, Strain/Sex: ICR/FEMALE, Target Tissue: Type of Lesion: FORESTOMACH: PAPILLOMA OR CARCINOMA, Dose [Carcinogen]: 2 MG IN 0.1 ML PROPYLENE GLYCOL 2/WK FOR 12 WK, Promoter: NONE USED): 97%, 47%, 52%, p<0.001

N[C@@H]1C[C@H]1c1ccccc1
tumour outcome (control, treated, inhibition, significance) (Carcinogen: N-METHYL-N-NITROSOUREA, 684-93-5, Dose [Inhibitor]: 10 MG/KG OF HIGH (20%) FAT DIET BEGINNING 1 WK POST CARCINOGEN DOSE AND CONTINUING FOR DURATION OF STUDY (STUDY DURATION, Route [Inhibitor]: ORAL, Species: RAT, Strain/Sex: SPRAGUE-DAWLEY/FEMALE, Target Tissue: Type of Lesion: MAMMARY GLAND: TUMOR, Dose [Carcinogen]: 40 MG/KG ONCE, Promoter: NONE USED): 78%, 88%, -13%, not calculated
tumour outcome (control, treated, inhibition, significance) (Carcinogen: N-METHYL-N-NITROSOUREA, 684-93-5, Dose [Inhibitor]: 10 MG/KG OF LOW (3%) FAT DIET BEGINNING 1 WK POST CARCINOGEN DOSE AND CONTINUING FOR DURATION OF STUDY (STUDY DURATION:, Route [Inhibitor]: ORAL, Species: RAT, Strain/Sex: SPRAGUE-DAWLEY/FEMALE, Target Tissue: Type of Lesion: MAMMARY GLAND: TUMOR, Dose [Carcinogen]: 40 MG/KG ONCE, Promoter: NONE USED): 78%, 83%, -6%, not calculated

CC(O)CCCCCC(=O)c1ccccc1 (configuration not stated)
tumour outcome (control, treated, inhibition, significance) (Carcinogen: 4-(METHYLNITROSAMINO)-1-(3-PYRIDYL)-1-BUTANONE, 64091-91-4, Dose [Inhibitor]: 0, 25 UMOL IN 0.1 ML CORN OIL ONCE 2 HR PRIOR TO CARCINOGEN DOSE (STUDY DURATION: 16 WK), Route [Inhibitor]: GAVAGE, Species: MOUSE, Strain/Sex: STRAIN-A/FEMALE, Target Tissue: Type of Lesion: LUNG: ADENOMA, Dose [Carcinogen]: 10 UMOL IN 0.1 ML SALINE ONCE, Promoter: NONE USED): 100%, 100%, 0%, not significant

CC(C)c1cc(C(=O)O)c(O)c(C(C)C)c1
tumour outcome (control, treated, inhibition, significance) (Carcinogen: BENZO[A]PYRENE, 50-32-8, Dose [Inhibitor]: 2000 NMOL IN 0.2 ML ACETONE APPLIED ONCE TO DORSAL SKIN 15 MIN PRIOR TO CARCINOGEN DOSE (STUDY DURATION: 20 WK), Route [Inhibitor]: DERMAL, Species: MOUSE, Strain/Sex: SENCAR/FEMALE, Target Tissue: Type of Lesion: SKIN: PAPILLOMA, Dose [Carcinogen]: 200 NMOL IN 0.2 ML ACETONE ONCE): 97%, 96%, 0.3%, not significant

CCCCCC(O)CC(=O)CCC1CCC(O)C(OC)C1 (configuration not stated)
tumour outcome (control, treated, inhibition, significance) (Carcinogen: AZOXYMETHANE, 25843-45-2, Dose [Inhibitor]: 0, 0.02% IN DIET IN WK 1-3 OF STUDY FOLLOWED BY BASAL DIET FOR DURATION OF STUDY (STUDY DURATION: 1 YR), Route [Inhibitor]: ORAL, Species: RAT, Strain/Sex: F344/MALE, Target Tissue: Type of Lesion: LARGE INTESTINE: ADENOCARCINOMA, Dose [Carcinogen]: 15 MG/KG BW 1/WK IN WK 1 AND 2 OF STUDY, Promoter: NONE USED): 13/27 (48%), 3/17 (18%), 63%, not calculated
tumour outcome (control, treated, inhibition, significance) (Carcinogen: AZOXYMETHANE, 25843-45-2, Dose [Inhibitor]: 0, 0.02% IN DIET IN WK 1-3 OF STUDY FOLLOWED BY BASAL DIET FOR DURATION OF STUDY (STUDY DURATION: 1 YR), Route [Inhibitor]: ORAL, Species: RAT, Strain/Sex: F344/MALE, Target Tissue: Type of Lesion: LARGE INTESTINE: ADENOMA, Dose [Carcinogen]: 15 MG/KG BW 1/WK IN WK 1 AND 2 OF STUDY, Promoter: NONE USED): 6/27 (22%), 5/17 (29%), -32%, not calculated
tumour outcome (control, treated, inhibition, significance) (Carcinogen: AZOXYMETHANE, 25843-45-2, Dose [Inhibitor]: 0, 0.02% IN DIET IN WK 1-3 OF STUDY FOLLOWED BY BASAL DIET FOR DURATION OF STUDY (STUDY DURATION: 1 YR), Route [Inhibitor]: ORAL, Species: RAT, Strain/Sex: F344/MALE, Target Tissue: Type of Lesion: SMALL INTESTINE: ADENOCARCINOMA, Dose [Carcinogen]: 15 MG/KG BW 1/WK IN WK 1 AND 2 OF STUDY, Promoter: NONE USED): 6/27 (22%), 0/17 (0%), 100%, not calculated
